According to article PMC9944328 (Nature Communications, 2023):
Entries after “also recorded” stand apart in the source; their conditions may differ. Read-outs that look alike come from different tables or passages of the source.

Assays:
SSTR2 = test: Bias factor (β value), Gi cAMP inhibition versus β-arrestin recruitment; type: cell-based, human
Procedure: (§1) The levels of the intracellular 3′, 5′-cyclic AMP (cAMP) were measured by the GloSensor cAMP assay (Promega) as described in the previous studies[28],[41] which has been widely used. The human full-length SSTRs and mutants were cloned into the pcDNA3.1+ vector with a HA signal sequence followed by a Flag tag at the N-terminus. […] Cells were then co-transfected with SSTR wild-type or mutants and GloSensor plasmids. After 24 h of transfection, the cells were dissociated with TrypLE™ Express Enzyme (1X) (Thermo Fisher Scientific) and collected by centrifugation at 500 × g for 5 min. Then the collected cells were suspended in Hank’s balanced salt solution [HBSS (Thermo Fisher Scientific)] supplemented with […] potassium salt solution (YEASEN), and then the suspension cells were seeded into 96-well plates with 90 μl/well. After incubating at room temperature for 40 min, 5 μM forskolin and ligands diluted in HBSS were added to each well and the plates were incubated at room temperature for 15 min. […] signals were measured using the Synergy H1 microplate reader (BioTek) and the data presented are means of at least three independent experiments.
The NanoBiT β-arrestin 1 recruitment assays were carried out according to the method described previously. […] Human full-length SSTR wild-type and mutant vectors were C-terminally fused with a 15-amino acid flexible linker and the small fragment (SmBiT). HEK293 cells were seeded into six-well microplates at a density of 1.0 × 10^6 cells/well and cultured for 24 h at 37 °C with 5% CO2. After that, cells were co-transfected with pcDNA3.1+ vectors encoding SSTR wild-type or mutants and human β-arrestin 1. After transfecting for 24 h, the transfected cells were suspended and seeded into white 96-well plates, and then cultured at 37 °C overnight. After that the medium in each well was exchanged for 90 μl of 0.01% bovine serum albumin containing 20 μl of 50 μM coelenterazine h (Carbosynth) diluted in the HBSS assay buffer and incubated for 40 min at room temperature. Then, ligands diluted in the assay buffer was added to each well and the luminescence intensity was measured using the Synergy H1 microplate reader and detected at room temperature in a time period. All data presented are means of at least three independent experiments.
All data in this study were analyzed using GraphPad Prism 7 and were expressed as the error bars and the standard error of means ± SEM from at least n = 3 biologically independent experiments performed in triplicate. All curve data were normalized to the maximal wild-type and processed using a sigmoidal dose response curve in GraphPad Prism 7. Statistical differences between conditions were determined by one-way of variance ANOVA with Dunnett’s test or T-test.

GH3 cells = test: Cell apoptosis assay, Annexin V-FITC/PI flow cytometry, GH3 cells overexpressing SSTR2, 48 h; type: cell-based, rat
Procedure: The rat pituitary GH3 cells (ATCC, CCL-82.1) were seeded in 12-well plates at 1.5 × 10^5/well. […] Then, the cells were collected for the apoptosis assay according to the instruction of the Annexin V-FITC/PI apoptosis detection kit (BD Biosciences). Briefly, the cells were washed with cold PBS and resuspended in 1 × binding buffer. Then, 5 μl of Annexin V-FITC was added and incubated for 10 min and stained with 5 μl of PI for 5 min in the dark at room temperature. All samples were acquired by a Novocyte flow cytometer (ACEA Biosciences, China), and data were analyzed with NovoExpress^TM software.

SSTR3 = biological target: T1, SSTR3 (Homo sapiens, UniProt P32745); test: SSTRs Gi-mediated cAMP inhibition, GloSensor, HEK293 (SSTR3 wild-type); type: cell-based; design: Bottom / Top / Span / Top (best-fit): unit not given here
T1 construct: The human full-length SSTRs and mutants were cloned into the pcDNA3.1+ vector; expressed in transfected cells; host or cells: HEK293 (ATCC, CRL-1573)
Procedure: as §1

SSTR3 mutants [1] = biological target: SSTR3 mutants (Homo sapiens, UniProt P32745); test: SSTRs Gi-mediated cAMP inhibition, GloSensor, HEK293 (SSTR3 mutants); type: cell-based; design: Bottom / Top / Span / Top (best-fit): unit not given here
Procedure: as §1

SSTR3 mutants [2] = biological target: T2, SSTR3 mutants (Homo sapiens, UniProt P32745, H192T); test: as above; type: cell-based; design: Bottom / Top / Span / Top (best-fit): unit not given here
T2 construct: The human full-length SSTRs and mutants were cloned into the pcDNA3.1+ vector; expressed in transfected cells; host or cells: HEK293 (ATCC, CRL-1573)
Procedure: as §1

SSTR2 mutants [3] = biological target: SSTR2 mutants (Homo sapiens, UniProt P30874, Y312A)
SSTR2 mutants [4] = biological target: SSTR2 mutants (Homo sapiens, UniProt P30874, R140A)
SSTR2 mutants [5] = test: SSTR2 internalization by ELISA, HEK293, 30 min 37 °C (mutants); type: cell-based, human; details: I284ECL3A, K291A, N276A, F294A, Bystander BRET or confocal
Procedure: HEK293 cells were seeded into 96-well microplates at a density of 4 × 10^4 cells/well and cultured for 24 h at 37 °C with 5% CO2 and were transfected using the same procedure as the cAMP accumulation assay. The plates were washed with washing buffer (PBS) the day after transfection, and were fixed with 4% formalin at room temperature for 30 min. Cells were washed with washing buffer and blocked with PBS supplemented with 5% BSA for 1 h at room temperature. After that, cells were incubated with anti-Flag antibody (1:1000 diluted with PBS containing 5% BSA, Proteintech: 66008-4-Ig) for 1 h at room temperature. After 1 h incubation, cells were washed with washing buffer and incubating with HRP-conjugated secondary antibody for 2 h at room temperature. After incubating and washing, 50 μl of chromogenic solution was added to each well, and reacted at room temperature for 10 min, and then 0.5 M HCl were added to stop the reaction.
All data presented are means at least three independent experiments.

[6] = best-fit, SSTR3 WT-1 (F296D set)
[7] = best-fit, SSTR3 WT-1 (H192T set)
[8] = best-fit, SSTR3 WT-1 (M193I set)
[9] = best-fit, SSTR3 WT-1 (N101V set)
[10] = best-fit, SSTR3 WT-2 (F296D set)
[11] = best-fit, SSTR3 WT-2 (H192T set)
[12] = best-fit, SSTR3 WT-2 (M193I set)
[13] = best-fit, SSTR3 WT-2 (N101V set)
[14] = best-fit, SSTR3 WT-3 (F296D set)
[15] = best-fit, SSTR3 WT-3 (M193I set)
[16] = best-fit, SSTR3 WT-3 (N101V set)

T1 sequence (P32745 whole entry): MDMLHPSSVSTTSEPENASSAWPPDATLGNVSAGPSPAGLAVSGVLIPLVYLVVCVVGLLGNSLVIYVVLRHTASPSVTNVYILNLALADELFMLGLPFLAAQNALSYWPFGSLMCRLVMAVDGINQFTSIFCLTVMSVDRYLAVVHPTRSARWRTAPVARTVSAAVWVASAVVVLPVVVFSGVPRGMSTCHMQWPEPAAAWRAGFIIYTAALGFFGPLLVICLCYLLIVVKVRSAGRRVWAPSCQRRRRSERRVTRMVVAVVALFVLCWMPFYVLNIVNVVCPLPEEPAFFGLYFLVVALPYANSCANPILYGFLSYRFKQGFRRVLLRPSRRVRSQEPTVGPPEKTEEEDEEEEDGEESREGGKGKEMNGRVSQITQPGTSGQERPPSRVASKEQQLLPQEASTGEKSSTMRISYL
T2 sequence (P32745 whole entry H192T): as the sequence (P32745 whole entry) above, with H192T counted along it
SSTR3 mutants (Homo sapiens, UniProt P32745), sequence (P32745 whole entry N104V): as the sequence (P32745 whole entry) above, with N104V counted along it
SSTR2 mutants (Homo sapiens, UniProt P30874, Y312A), sequence (P30874 whole entry Y312A): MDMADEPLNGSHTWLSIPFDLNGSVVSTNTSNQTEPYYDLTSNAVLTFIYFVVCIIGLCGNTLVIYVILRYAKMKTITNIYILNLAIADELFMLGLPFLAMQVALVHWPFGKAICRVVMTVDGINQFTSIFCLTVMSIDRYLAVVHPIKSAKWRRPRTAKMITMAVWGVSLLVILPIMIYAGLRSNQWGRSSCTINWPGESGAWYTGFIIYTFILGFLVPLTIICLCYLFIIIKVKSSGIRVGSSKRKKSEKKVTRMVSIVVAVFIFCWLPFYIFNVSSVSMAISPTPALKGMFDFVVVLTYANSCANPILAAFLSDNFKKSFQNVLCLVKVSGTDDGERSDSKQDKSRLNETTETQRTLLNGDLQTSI
SSTR2 mutants (Homo sapiens, UniProt P30874, R140A), sequence (P30874 whole entry R140A): as the sequence (P30874 whole entry Y312A) above, with R140A, A312Y counted along it

SMILES: N#Cc1cccc(-c2ccc3ncc(-c4cc(F)cc(F)c4)c(N4CCC(N)CC4)c3c2)c1O [paltusotine]
- Effect of microswitch mutations (SSTR2; CWxP, PIF, DRY and NPxxY motif mutants versus wild-type SSTR2): decreased the potency of β-arrestin recruitment more markedly than the activation ability of Gi signaling
- Effect of mutants on both signals (SSTR2; D122(3.32) and Q126(3.36) mutants): markedly affected both β-arrestin and Gi signal
- Signal bias (SSTR2; SSTR2, compared with octreotide): more G protein-biased ligand than octreotide; also recorded: better G-protein-biased agonist of SSTR2 compared with octreotide
- Apoptotic rate versus octreotide (GH3 cells): increased apoptotic rate
- Proapoptotic activity (GH3 cells): able to activate proapoptotic pathways
- EC50 (SSTR3): 2.6 nM
- Emax (SSTR3; HEK293, Suppl. Tables 4/5, SSTR3-WT, n=5): 36.7 ± 11.7%
- Fold of WT (SSTR3; Suppl. Tables 4/5, SSTR3-WT): 1
- EC50 (SSTR3; Suppl. Tables 4/5, SSTR3-WT, n=5, read-out: EC50): 63.8 ± 1.33 nM
- Bottom (SSTR3; [6]): 7.289
- LogEC50 (SSTR3; [6]): -5.765
- Span (SSTR3; [6]): 89.66
- Top (SSTR3; [6]): 96.95
- Bottom (SSTR3; [7]): -24.33
- LogEC50 (SSTR3; [7]): -7.352
- Span (SSTR3; [7]): 140.2
- Top (SSTR3; [7]): 115.9
- EC50 (SSTR3; best-fit, SSTR3 WT-1 (H192T set), read-out: EC50): 44.5 nM
- Bottom (SSTR3; [8]): 2.721
- LogEC50 (SSTR3; [8]): -7.195
- Span (SSTR3; [8]): 103.1
- Top (SSTR3; [8]): 105.9
- EC50 (SSTR3; best-fit, SSTR3 WT-1 (M193I set), read-out: EC50): 63.8 nM
- Bottom (SSTR3; [9]): 2.721
- LogEC50 (SSTR3; [9]): -7.195
- Span (SSTR3; [9]): 103.1
- Top (SSTR3; [9]): 105.9
- EC50 (SSTR3; best-fit, SSTR3 WT-1 (N101V set), read-out: EC50): 63.8 nM
- Bottom (SSTR3; [10]): 2.721
- LogEC50 (SSTR3; [10]): -7.195
- Span (SSTR3; [10]): 103.1
- Top (SSTR3; [10]): 105.9
- EC50 (SSTR3; best-fit, SSTR3 WT-2 (F296D set), read-out: EC50): 63.8 nM
- Bottom (SSTR3; [11]): -19.9
- LogEC50 (SSTR3; [11]): -7.557
- Span (SSTR3; [11]): 137.3
- Top (SSTR3; [11]): 117.4
- EC50 (SSTR3; best-fit, SSTR3 WT-2 (H192T set), read-out: EC50): 27.7 nM
- Bottom (SSTR3; [12]): -0.9229
- LogEC50 (SSTR3; [12]): -7.198
- Span (SSTR3; [12]): 106.7
- Top (SSTR3; [12]): 105.8
- EC50 (SSTR3; best-fit, SSTR3 WT-2 (M193I set), read-out: EC50): 63.4 nM
- Bottom (SSTR3; [13]): -0.442
- LogEC50 (SSTR3; [13]): -8.585
- Span (SSTR3; [13]): 97.55
- Top (SSTR3; [13]): 97.11
- Bottom (SSTR3; [14]): -0.9229
- LogEC50 (SSTR3; [14]): -7.198
- Span (SSTR3; [14]): 106.7
- Top (SSTR3; [14]): 105.8
- EC50 (SSTR3; best-fit, SSTR3 WT-3 (F296D set), read-out: EC50): 63.4 nM
- Bottom (SSTR3; [15]): -0.442
- LogEC50 (SSTR3; [15]): -8.585
- Span (SSTR3; [15]): 97.55
- Top (SSTR3; [15]): 97.11
- Bottom (SSTR3; [16]): -0.9229
- LogEC50 (SSTR3; [16]): -7.198
- Span (SSTR3; [16]): 106.7
- Top (SSTR3; [16]): 105.8
- EC50 (SSTR3; best-fit, SSTR3 WT-3 (N101V set), read-out: EC50): 63.4 nM
- Emax (SSTR3 mutants [1]; HEK293): 90.7 ± 7.93%
- Fold of WT (SSTR3 mutants [1]; Suppl. Tables 4/5, SSTR3 N101(2.64)V): 1.31
- EC50 (SSTR3 mutants [1]; Suppl. Tables 4/5, SSTR3 N101(2.64)V, n=3): 83.7 ± 1.31 nM
- Bottom (SSTR3 mutants [1]; best-fit, SSTR3 N101V-1): 2.574
- EC50 (SSTR3 mutants [1]; best-fit, SSTR3 N101V-1): 85.3 nM
- LogEC50 (SSTR3 mutants [1]; best-fit, SSTR3 N101V-1): -7.069
- Span (SSTR3 mutants [1]; best-fit, SSTR3 N101V-1): 181.5
- Bottom (SSTR3 mutants [1]; best-fit, SSTR3 N101V-2): 5.233
- LogEC50 (SSTR3 mutants [1]; best-fit, SSTR3 N101V-2): -7.01
- Span (SSTR3 mutants [1]; best-fit, SSTR3 N101V-2): 137.4
- Bottom (SSTR3 mutants [1]; best-fit, SSTR3 N101V-3): 5.233
- LogEC50 (SSTR3 mutants [1]; best-fit, SSTR3 N101V-3): -7.01
- Span (SSTR3 mutants [1]; best-fit, SSTR3 N101V-3): 137.4
- EC50 (SSTR3 mutants [2]): 58.1 ± 1.43 nM
- Emax (SSTR3 mutants [2]; HEK293): 108 ± 8.99%
- Fold of WT (SSTR3 mutants [2]; Suppl. Tables 4/5, SSTR3 H192(45.51)T): 0.91
- Bottom (SSTR3 mutants [2]; best-fit, SSTR3 H192T-1): 14.85
- LogEC50 (SSTR3 mutants [2]; best-fit, SSTR3 H192T-1): -7.173
- Span (SSTR3 mutants [2]; best-fit, SSTR3 H192T-1): 475
- Top (SSTR3 mutants [2]; best-fit, SSTR3 H192T-1): 489.8
- EC50 (SSTR3 mutants [2]; best-fit, SSTR3 H192T-1, read-out: EC50): 67.2 nM
- Bottom (SSTR3 mutants [2]; best-fit, SSTR3 H192T-2): 37.09
- LogEC50 (SSTR3 mutants [2]; best-fit, SSTR3 H192T-2): -7.251
- Span (SSTR3 mutants [2]; best-fit, SSTR3 H192T-2): 569.9
- Top (SSTR3 mutants [2]; best-fit, SSTR3 H192T-2): 607
- EC50 (SSTR3 mutants [2]; best-fit, SSTR3 H192T-2, read-out: EC50): 56 nM
- Emax (SSTR2 mutants [3]): 41.3 ± 3%
- Emax (SSTR2 mutants [4]): 50.9 ± 2.01%
- Internalization of mutants (SSTR2 mutants [5]): slightly change in the internalization
